Source: the CheMixHub viscosity set

Test: xn = mol fraction of the nth substance listed

CC(C)(C)C1CCCCC1 + CCCCCCCCCCCCCCCC
viscosity [mPa·s], 102 kPa
Details | x1 = 0.1004 | x1 = 0.2003 | x1 = 0.3003 | x1 = 0.4016 | x1 = 0.5003 | x1 = 0.6001 | x1 = 0.7002 | x1 = 0.8001 | x1 = 0.8999
293.15 K | 3.31 | 3.13 | 2.95 | 2.77 | 2.59 | 2.41 | 2.23 | 2.05 | 1.87
303.15 K | 2.63 | 2.51 | 2.37 | 2.24 | 2.1 | 1.97 | 1.83 | 1.7 | 1.56
313.15 K | 2.15 | 2.05 | 1.95 | 1.85 | 1.75 | 1.64 | 1.54 | 1.43 | 1.32
323.15 K | 1.78 | 1.71 | 1.63 | 1.56 | 1.48 | 1.39 | 1.31 | 1.22 | 1.14

C1CCCC1 + CCCCCCCO
101.3 kPa
Details | viscosity [mPa·s]
298.15 K, x1 = 0.0352 | 5.482
298.15 K, x1 = 0.0593 | 5.221
298.15 K, x1 = 0.0988 | 4.844
298.15 K, x1 = 0.1481 | 4.446
298.15 K, x1 = 0.2145 | 3.924
298.15 K, x1 = 0.2684 | 3.481
298.15 K, x1 = 0.3065 | 3.175
298.15 K, x1 = 0.3655 | 2.729
298.15 K, x1 = 0.4052 | 2.452
298.15 K, x1 = 0.4333 | 2.255
298.15 K, x1 = 0.4668 | 2.039
298.15 K, x1 = 0.4932 | 1.889
298.15 K, x1 = 0.5131 | 1.773
298.15 K, x1 = 0.5247 | 1.71
298.15 K, x1 = 0.5389 | 1.629
298.15 K, x1 = 0.5545 | 1.546
298.15 K, x1 = 0.5728 | 1.45
298.15 K, x1 = 0.5972 | 1.348
298.15 K, x1 = 0.612 | 1.272
298.15 K, x1 = 0.6459 | 1.141
298.15 K, x1 = 0.6823 | 1.009
298.15 K, x1 = 0.7149 | 0.909
298.15 K, x1 = 0.7429 | 0.819
298.15 K, x1 = 0.7801 | 0.734
298.15 K, x1 = 0.8099 | 0.672
298.15 K, x1 = 0.8367 | 0.622
298.15 K, x1 = 0.876 | 0.559
298.15 K, x1 = 0.9139 | 0.507
298.15 K, x1 = 0.9562 | 0.455
298.15 K, x2 = 0.0123 | 0.422
308.15 K, x1 = 0.0706 | 3.806
308.15 K, x1 = 0.107 | 3.567
308.15 K, x1 = 0.2112 | 2.906
308.15 K, x1 = 0.2927 | 2.434
308.15 K, x1 = 0.3502 | 2.124
308.15 K, x1 = 0.3903 | 1.904
308.15 K, x1 = 0.4235 | 1.762
308.15 K, x1 = 0.4744 | 1.536
308.15 K, x1 = 0.5101 | 1.397
308.15 K, x1 = 0.5124 | 1.388
308.15 K, x1 = 0.5273 | 1.333
308.15 K, x1 = 0.5473 | 1.254
308.15 K, x1 = 0.5733 | 1.164
308.15 K, x1 = 0.5957 | 1.094
308.15 K, x1 = 0.6126 | 1.033
308.15 K, x1 = 0.6337 | 0.973
308.15 K, x1 = 0.6691 | 0.873
308.15 K, x1 = 0.6936 | 0.817
308.15 K, x1 = 0.7266 | 0.741
308.15 K, x1 = 0.7759 | 0.645
308.15 K, x1 = 0.8235 | 0.567
308.15 K, x1 = 0.8612 | 0.513
308.15 K, x1 = 0.9001 | 0.465
308.15 K, x1 = 0.9538 | 0.407
318.15 K, x1 = 0.0663 | 3.159
318.15 K, x1 = 0.1607 | 2.659
318.15 K, x1 = 0.2747 | 2.102
318.15 K, x1 = 0.3487 | 1.774
318.15 K, x1 = 0.4227 | 1.477
318.15 K, x1 = 0.4685 | 1.326
318.15 K, x1 = 0.504 | 1.204
318.15 K, x1 = 0.5407 | 1.097
318.15 K, x1 = 0.5754 | 1.006
318.15 K, x1 = 0.6027 | 0.936
318.15 K, x1 = 0.6281 | 0.877
318.15 K, x1 = 0.6529 | 0.814
318.15 K, x1 = 0.6898 | 0.743
318.15 K, x1 = 0.7214 | 0.681
318.15 K, x1 = 0.7581 | 0.617
318.15 K, x1 = 0.8025 | 0.549
318.15 K, x1 = 0.8554 | 0.475
318.15 K, x1 = 0.9198 | 0.402
318.15 K, x1 = 0.9672 | 0.359
